Reference: patent publication US8192962B2, “Processes for detecting toxic substances” (Daikin Industries, Ltd., priority 2001, dated 2012)

System: Metabolism protein genes
Test: DNA chip mRNA expression in yeast, metabolism protein genes (Table 7)
Assay type: cell-based, Saccharomyces cerevisiae S288C
Summary of the method: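 Chemical exposure: 2 h, log-phase S. cerevisiae S288C, YPD, 25° C., dose set to inhibit growth without death. Profiling: mRNA labeled by reverse transcription with Cy3- or Cy5-dUTP, hybridized to whole-genome array. Output: fluorescence ratio against untreated culture.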

[Cl][Cd][Cl] [(2), CdCl2] was tested, and the “The level of expressed mRNA in the presence of chemical substance/The level of expressed mRNA in the absence of chemical substance” value (yeast gene YAL012W) was 6.5, the “The level of expressed mRNA in the presence of chemical substance/The level of expressed mRNA in the absence of chemical substance” value (yeast gene YAL038W) was 1.0 and the “level of expressed mRNA in the presence/in the absence of chemical substance” value (yeast gene YBR003W) was 0.8. For the same molecule, the “level of expressed mRNA in the presence/in the absence of chemical substance” value (yeast gene YBR011C) was 1.8, the “level of expressed mRNA in the presence/in the absence of chemical substance” value (yeast gene YBR020W) was 0.5 and the “The level of expressed mRNA in the presence of chemical substance/The level of expressed mRNA in the absence of chemical substance” value (yeast gene YBR023C) was 0.8. For the same molecule, the “The level of expressed mRNA in the presence of chemical substance/The level of expressed mRNA in the absence of chemical substance” value (yeast gene YBR029C) was 0.2, the “The level of expressed mRNA in the presence of chemical substance/The level of expressed mRNA in the absence of chemical substance” value (yeast gene YBR183W) was 1.5 and the “The level of expressed mRNA in the presence of chemical substance/The level of expressed mRNA in the absence of chemical substance” value (yeast gene YBR222C) was 1.2. For the same molecule, the “The level of expressed mRNA in the presence of chemical substance/The level of expressed mRNA in the absence of chemical substance” value (yeast gene YBR256C) was 1.4, the “The level of expressed mRNA in the presence of chemical substance/The level of expressed mRNA in the absence of chemical substance” value (yeast gene YCL009C) was 0.9 and the “The level of expressed mRNA in the presence of chemical substance/The level of expressed mRNA in the absence of chemical substance” value (yeast gene YCL064C) was 0.6. The “level of expressed mRNA in the presence/in the absence of chemical substance” value (yeast gene YCR010C) was 1.6, the “level of expressed mRNA in the presence/in the absence of chemical substance” value (yeast gene YCR034W) was 0.4 and the “The level of expressed mRNA in the presence of chemical substance/The level of expressed mRNA in the absence of chemical substance” value (yeast gene YCR048W) was 1.1. The “The level of expressed mRNA in the presence of chemical substance/The level of expressed mRNA in the absence of chemical substance” value (yeast gene YCR098C) was 3.0, the “The level of expressed mRNA in the presence of chemical substance/The level of expressed mRNA in the absence of chemical substance” value (yeast gene YDR019C) was 0.5 and the “level of expressed mRNA in the presence/in the absence of chemical substance” value (yeast gene YDR050C) was 1.3. For the same molecule, the “level of expressed mRNA in the presence/in the absence of chemical substance” value (yeast gene YDR073W) was 0.9, the “level of expressed mRNA in the presence/in the absence of chemical substance” value (yeast gene YDR123C) was 0.8 and the “level of expressed mRNA in the presence/in the absence of chemical substance” value (yeast gene YDR178W) was 2.0. For the same molecule, the “level of expressed mRNA in the presence/in the absence of chemical substance” value (yeast gene YDR277C) was 1.2, the “level of expressed mRNA in the presence/in the absence of chemical substance” value (yeast gene YDR284C) was 1.5 and the “level of expressed mRNA in the presence/in the absence of chemical substance” value (yeast gene YDR345C) was 0.9. The “The level of expressed mRNA in the presence of chemical substance/The level of expressed mRNA in the absence of chemical substance” value (yeast gene YDR380W) was 0.8, the “level of expressed mRNA in the presence/in the absence of chemical substance” value (yeast gene YDR400W) was 2.0 and the “level of expressed mRNA in the presence/in the absence of chemical substance” value (yeast gene YDR408C) was 1.0. For the same molecule, the “level of expressed mRNA in the presence/in the absence of chemical substance” value (yeast gene YDR483W) was 1.0, the “The level of expressed mRNA in the presence of chemical substance/The level of expressed mRNA in the absence of chemical substance” value (yeast gene YDR497C) was 0.5 and the “The level of expressed mRNA in the presence of chemical substance/The level of expressed mRNA in the absence of chemical substance” value (yeast gene YDR502C) was 2.8. The “The level of expressed mRNA in the presence of chemical substance/The level of expressed mRNA in the absence of chemical substance” value (yeast gene YDR516C) was 1.5, the “level of expressed mRNA in the presence/in the absence of chemical substance” value (yeast gene YEL063C) was 0.8 and the “level of expressed mRNA in the presence/in the absence of chemical substance” value (yeast gene YER015W) was 0.9. The “The level of expressed mRNA in the presence of chemical substance/The level of expressed mRNA in the absence of chemical substance” value (yeast gene YER026C) was 0.6, the “The level of expressed mRNA in the presence of chemical substance/The level of expressed mRNA in the absence of chemical substance” value (yeast gene YER053C) was 1.8 and the “The level of expressed mRNA in the presence of chemical substance/The level of expressed mRNA in the absence of chemical substance” value (yeast gene YER069W) was 0.8. The “level of expressed mRNA in the presence/in the absence of chemical substance” value (yeast gene YER081W) was 1.9, the “The level of expressed mRNA in the presence of chemical substance/The level of expressed mRNA in the absence of chemical substance” value (yeast gene YER096W) was 2.3 and the “level of expressed mRNA in the presence/in the absence of chemical substance” value (yeast gene YER120W) was 1.1. The “The level of expressed mRNA in the presence of chemical substance/The level of expressed mRNA in the absence of chemical substance” value (yeast gene YER178W) was 0.9, the “level of expressed mRNA in the presence/in the absence of chemical substance” value (yeast gene YFL011W) was 0.7 and the “The level of expressed mRNA in the presence of chemical substance/The level of expressed mRNA in the absence of chemical substance” value (yeast gene YFL014W) was 7.2. For the same molecule, the “The level of expressed mRNA in the presence of chemical substance/The level of expressed mRNA in the absence of chemical substance” value (yeast gene YFL030W) was 6.0, the “The level of expressed mRNA in the presence of chemical substance/The level of expressed mRNA in the absence of chemical substance” value (yeast gene YFL031W) was 1.3 and the “The level of expressed mRNA in the presence of chemical substance/The level of expressed mRNA in the absence of chemical substance” value (yeast gene YFL056C) was 2.3. For the same molecule, the “The level of expressed mRNA in the presence of chemical substance/The level of expressed mRNA in the absence of chemical substance” value (yeast gene YFL057C) was 5.8, the “The level of expressed mRNA in the presence of chemical substance/The level of expressed mRNA in the absence of chemical substance” value (yeast gene YFR047C) was 4.0 and the “level of expressed mRNA in the presence/in the absence of chemical substance” value (yeast gene YGL012W) was 0.8. For the same molecule, the “The level of expressed mRNA in the presence of chemical substance/The level of expressed mRNA in the absence of chemical substance” value (yeast gene YGL022W) was 0.8, the “level of expressed mRNA in the presence/in the absence of chemical substance” value (yeast gene YGL115W) was 0.6 and the “The level of expressed mRNA in the presence of chemical substance/The level of expressed mRNA in the absence of chemical substance” value (yeast gene YGL126W) was 1.3. For the same molecule, the “level of expressed mRNA in the presence/in the absence of chemical substance” value (yeast gene YGL205W) was 0.9, the “The level of expressed mRNA in the presence of chemical substance/The level of expressed mRNA in the absence of chemical substance” value (yeast gene YGL209W) was 1.6 and the “The level of expressed mRNA in the presence of chemical substance/The level of expressed mRNA in the absence of chemical substance” value (yeast gene YGL248W) was 1.3. The “The level of expressed mRNA in the presence of chemical substance/The level of expressed mRNA in the absence of chemical substance” value (yeast gene YGR037C) was 1.2, the “The level of expressed mRNA in the presence of chemical substance/The level of expressed mRNA in the absence of chemical substance” value (yeast gene YGR055W) was 5.7 and the “level of expressed mRNA in the presence/in the absence of chemical substance” value (yeast gene YGR096W) was 1.0. The “level of expressed mRNA in the presence/in the absence of chemical substance” value (yeast gene YGR191W) was 0.7, the “The level of expressed mRNA in the presence of chemical substance/The level of expressed mRNA in the absence of chemical substance” value (yeast gene YGR194C) was 1.0 and the “level of expressed mRNA in the presence/in the absence of chemical substance” value (yeast gene YGR204W) was 1.1. For the same molecule, the “The level of expressed mRNA in the presence of chemical substance/The level of expressed mRNA in the absence of chemical substance” value (yeast gene YGR256W) was 1.5, the “The level of expressed mRNA in the presence of chemical substance/The level of expressed mRNA in the absence of chemical substance” value (yeast gene YGR282C) was 0.7 and the “level of expressed mRNA in the presence/in the absence of chemical substance” value (yeast gene YGR288W) was 0.5. The “level of expressed mRNA in the presence/in the absence of chemical substance” value (yeast gene YHR025W) was 0.8, the “The level of expressed mRNA in the presence of chemical substance/The level of expressed mRNA in the absence of chemical substance” value (yeast gene YHR111W) was 1.3 and the “level of expressed mRNA in the presence/in the absence of chemical substance” value (yeast gene YHR123W) was 1.2. The “The level of expressed mRNA in the presence of chemical substance/The level of expressed mRNA in the absence of chemical substance” value (yeast gene YHR137W) was 1.0, the “The level of expressed mRNA in the presence of chemical substance/The level of expressed mRNA in the absence of chemical substance” value (yeast gene YHR174W) was 1.4 and the “The level of expressed mRNA in the presence of chemical substance/The level of expressed mRNA in the absence of chemical substance” value (yeast gene YHR176W) was 2.0. The “level of expressed mRNA in the presence/in the absence of chemical substance” value (yeast gene YHR210C) was 1.0, the “level of expressed mRNA in the presence/in the absence of chemical substance” value (yeast gene YIL006W) was 1.1 and the “The level of expressed mRNA in the presence of chemical substance/The level of expressed mRNA in the absence of chemical substance” value (yeast gene YIL045W) was 1.4. For the same molecule, the “The level of expressed mRNA in the presence of chemical substance/The level of expressed mRNA in the absence of chemical substance” value (yeast gene YIL107C) was 0.8, the “The level of expressed mRNA in the presence of chemical substance/The level of expressed mRNA in the absence of chemical substance” value (yeast gene YIL154C) was 1.3 and the “The level of expressed mRNA in the presence of chemical substance/The level of expressed mRNA in the absence of chemical substance” value (yeast gene YIL155C) was 0.7. The “The level of expressed mRNA in the presence of chemical substance/The level of expressed mRNA in the absence of chemical substance” value (yeast gene YIR034C) was 1.1, the “The level of expressed mRNA in the presence of chemical substance/The level of expressed mRNA in the absence of chemical substance” value (yeast gene YIR036C) was 1.7 and the “The level of expressed mRNA in the presence of chemical substance/The level of expressed mRNA in the absence of chemical substance” value (yeast gene YJL031C) was 1.2. For the same molecule, the “The level of expressed mRNA in the presence of chemical substance/The level of expressed mRNA in the absence of chemical substance” value (yeast gene YJL068C) was 2.7, the “The level of expressed mRNA in the presence of chemical substance/The level of expressed mRNA in the absence of chemical substance” value (yeast gene YJL088W) was 0.8 and the “The level of expressed mRNA in the presence of chemical substance/The level of expressed mRNA in the absence of chemical substance” value (yeast gene YJL099W) was 1.2. The “level of expressed mRNA in the presence/in the absence of chemical substance” value (yeast gene YJL121C) was 0.5, the “level of expressed mRNA in the presence/in the absence of chemical substance” value (yeast gene YJL167W) was 1.4 and the “The level of expressed mRNA in the presence of chemical substance/The level of expressed mRNA in the absence of chemical substance” value (yeast gene YJL172W) was 2.1. For the same molecule, the “level of expressed mRNA in the presence/in the absence of chemical substance” value (yeast gene YJL216C) was 4.7, the “The level of expressed mRNA in the presence of chemical substance/The level of expressed mRNA in the absence of chemical substance” value (yeast gene YJL219W) was 2.5 and the “level of expressed mRNA in the presence/in the absence of chemical substance” value (yeast gene YJR077C) was 1.1. For the same molecule, the “The level of expressed mRNA in the presence of chemical substance/The level of expressed mRNA in the absence of chemical substance” value (yeast gene YJR137C) was 2.9, the “level of expressed mRNA in the presence/in the absence of chemical substance” value (yeast gene YJR143C) was 0.6 and the “The level of expressed mRNA in the presence of chemical substance/The level of expressed mRNA in the absence of chemical substance” value (yeast gene YJR148W) was 1.4.
